Assay results: patent publication US9204653B2, “5-fluoro pyrimidine derivatives” (DOW AGROSCIENCES LLC, priority 2008, dated 2015)
Read-outs that look alike come from different tables or passages of the source.

Test system: Mycosphaerella graminicola; Anamorph: Septoria tritici; Bayer Code SEPTTR
Test: Leaf blotch of wheat, foliar fungicide treatment, one day protectant (1DP) or three day curative (3DC)
Type: in vivo, Septoria tritici on wheat plants (variety Yuma)
Conditions: Zymoseptoria tritici; for pest or weed control at 50 ppm / pest or weed control at 200 ppm: % disease control rating
[1] = 24 h, one day protectant (1DP), 25 ppm (first 1DP column), percent control rating, read-out: SETTTR 1DP 25 ppm
[2] = 24 h, one day protectant (1DP), 25 ppm as printed (second 1DP column), percent control rating, read-out: SETTTR 1DP 25 ppm
[3] = 72 h, three day curative (3DC), 25 ppm, percent control rating, read-out: SEPTTR 3DC 25 ppm
[4] = 72 h, three day curative (3DC), percent control rating, read-out: SEPTTR 3DC 100 ppm
[5] = 24 h, one day protectant (1DP), 25 ppm, rating of percent disease control, read-out: SETTTR 1DP 25 ppm
[6] = 24 h, one day protectant (1DP), rating of percent disease control, read-out: SEPTTR 1DP 100 ppm
[7] = 72 h, three day curative (3DC), 25 ppm, rating of percent disease control, read-out: SEPTTR 3DC 25 ppm
[8] = 72 h, three day curative (3DC), rating of percent disease control, read-out: SEPTTR 3DC 100 ppm
[9] = 24 h, one day protectant, 25 ppm, rating of percent disease control, read-out: SETTTR 1DP 25 ppm
[10] = 24 h, one day protectant, rating of percent disease control, read-out: SEPTTR 1DP 100 ppm
[11] = 72 h, three day curative, 25 ppm, rating of percent disease control, read-out: SEPTTR 3DC 25 ppm
[12] = 72 h, three day curative, rating of percent disease control, read-out: SEPTTR 3DC 100 ppm

## C/C=C(C)/C=N/Nc1nc(OC)ncc1F [Compound 1033]
[1]
  pest or weed control at 25 ppm: 0 to 25%
[2]
  pest or weed control at 25 ppm: 0 to 25%
[3]
  pest or weed control at 25 ppm: 0 to 25%
[4]
  pest or weed control at 100 ppm: 26 to 50%

## Cc1cc(COc2ncc(F)c(N)n2)nn1C [Compound 431]
[5]
  pest or weed control at 25 ppm: 76 to 100%
[6]
  pest or weed control at 100 ppm: 76 to 100%
[7]
  pest or weed control at 25 ppm: 76 to 100%
[8]
  pest or weed control at 100 ppm: 76 to 100%

## COc1ncc(F)c(NO[Si](C)(C)C(C)(C)C)n1 [Compound 1079]
[1]
  pest or weed control at 25 ppm: 0 to 25%
[2]
  pest or weed control at 25 ppm: 0 to 25%
[3]
  pest or weed control at 25 ppm: 0 to 25%
[4]
  pest or weed control at 100 ppm: 0 to 25%

## Fc1cnc(OCC(F)(F)F)nc1NCCc1ccccc1 [Compound 861]
24 h, one day protectant
  pest or weed control at 50 ppm: 0 to 25%
  pest or weed control at 200 ppm: 26 to 50%

## CCCCCOC(=O)Nc1nc(OCc2ccccc2)ncc1F [Compound 982]
[1]
  pest or weed control at 25 ppm: 76 to 100%
[2]
  pest or weed control at 25 ppm: 76 to 100%
[3]
  pest or weed control at 25 ppm: 76 to 100%
[4]
  pest or weed control at 100 ppm: 76 to 100%

## CC(=O)Nc1nc(OCc2ccc(C)cc2)ncc1F [Compound 179]
24 h, one day protectant (1DP), 25 ppm, percent disease control rating, read-out: SETTTR 1DP 25 ppm
  pest or weed control at 25 ppm: 76 to 100%
24 h, one day protectant (1DP), percent disease control rating, read-out: SEPTTR 1DP 100 ppm
  pest or weed control at 100 ppm: 76 to 100%
72 h, three day curative (3DC), 25 ppm, percent disease control rating, read-out: SEPTTR 3DC 25 ppm
  pest or weed control at 25 ppm: 76 to 100%
72 h, three day curative (3DC), percent disease control rating, read-out: SEPTTR 3DC 100 ppm
  pest or weed control at 100 ppm: 76 to 100%

## Fc1ccc(COc2ncc(F)c(NCc3ccc(Cl)cc3)n2)cc1F [Compound 851]
24 h, one day protectant
  pest or weed control at 50 ppm: 76 to 100%
  pest or weed control at 200 ppm: 76 to 100%

## COc1ccc(/C(C)=N/Nc2nc(OC)ncc2F)cc1 [Compound 1017]
[1]
  pest or weed control at 25 ppm: 0 to 25%
[2]
  pest or weed control at 25 ppm: 26 to 50%
[3]
  pest or weed control at 25 ppm: 0 to 25%
[4]
  pest or weed control at 100 ppm: 51 to 75%

## COc1ncc(F)c(/N=N/c2c(Cl)cccc2Cl)n1 [Compound 1097]
[1]
  pest or weed control at 25 ppm: 0 to 25%
[2]
  pest or weed control at 25 ppm: 0 to 25%
[3]
  pest or weed control at 25 ppm: 0 to 25%
[4]
  pest or weed control at 100 ppm: 26 to 50%

## ON(c1nc(OCc2ccc(F)cc2)ncc1F)C1CCCCC1 [Compound 454]
[5]
  pest or weed control at 25 ppm: 0 to 25%
[6]
  pest or weed control at 100 ppm: 76 to 100%
[7]
  pest or weed control at 25 ppm: 26 to 50%
[8]
  pest or weed control at 100 ppm: 0 to 25%

## Fc1cnc(OCc2ccccc2Cl)nc1NC1CC1 [Compound 807]
24 h, one day protectant
  pest or weed control at 200 ppm: 76 to 100%

## Cc1cc(C)c(COc2ncc(F)c(N)n2)cc1C [Compound 691]
[9]
  pest or weed control at 25 ppm: 51 to 75%
[10]
  pest or weed control at 100 ppm: 76 to 100%
[11]
  pest or weed control at 25 ppm: 51 to 75%
[12]
  pest or weed control at 100 ppm: 76 to 100%

## Fc1ccccc1CNc1nc(OCc2cc(Cl)cc(Cl)c2)ncc1F [Compound 907]
24 h, one day protectant
  pest or weed control at 50 ppm: 51 to 75%
  pest or weed control at 200 ppm: 76 to 100%

## Nc1nc(OCc2cc(Cl)nc(Cl)c2)ncc1F [Compound 682]
[9]
  pest or weed control at 25 ppm: 76 to 100%
[10]
  pest or weed control at 100 ppm: 76 to 100%
[11]
  pest or weed control at 25 ppm: 76 to 100%
[12]
  pest or weed control at 100 ppm: 76 to 100%

## O=C(Nc1ccccc1F)Nc1nc(OCc2ccccc2)ncc1F [Compound 291]
[5]
  pest or weed control at 25 ppm: 0 to 25%
[6]
  pest or weed control at 100 ppm: 0 to 25%
[7]
  pest or weed control at 25 ppm: 0 to 25%
[8]
  pest or weed control at 100 ppm: 26 to 50%

## COc1cccc(COc2ncc(F)c(-n3ccnc3)n2)c1 [Compound 334]
[5]
  pest or weed control at 25 ppm: 76 to 100%
[6]
  pest or weed control at 100 ppm: 76 to 100%
[7]
  pest or weed control at 25 ppm: 76 to 100%
[8]
  pest or weed control at 100 ppm: 76 to 100%

## NN(Cc1ccccc1)c1nc(O)ncc1F [Compound 1093]
[1]
  pest or weed control at 25 ppm: 0 to 25%
[2]
  pest or weed control at 25 ppm: 0 to 25%
[3]
  pest or weed control at 25 ppm: 0 to 25%
[4]
  pest or weed control at 100 ppm: 0 to 25%

## COc1ccccc1COc1ncc(F)c(/N=C2\CCCCN2C)n1 [Compound 317]
[5]
  pest or weed control at 25 ppm: 51 to 75%
[6]
  pest or weed control at 100 ppm: 76 to 100%
[7]
  pest or weed control at 25 ppm: 26 to 50%
[8]
  pest or weed control at 100 ppm: 76 to 100%

## Cc1ccc(COc2ncc(F)c(NCc3cnc(C)cn3)n2)cc1 [Compound 916]
24 h, one day protectant
  pest or weed control at 50 ppm: 76 to 100%
  pest or weed control at 200 ppm: 76 to 100%

## COc1cccc(COc2ncc(F)c(N)n2)c1F [Compound 794]
[5]
  pest or weed control at 25 ppm: 76 to 100%
[6]
  pest or weed control at 100 ppm: 76 to 100%
[7]
  pest or weed control at 25 ppm: 76 to 100%
[8]
  pest or weed control at 100 ppm: 76 to 100%

## Cc1ccc(COc2ncc(F)c(NNc3ccc(Cl)nn3)n2)cc1 [Compound 1040]
[1]
  pest or weed control at 25 ppm: 0 to 25%
[2]
  pest or weed control at 25 ppm: 0 to 25%
[3]
  pest or weed control at 25 ppm: 0 to 25%
[4]
  pest or weed control at 100 ppm: 0 to 25%
